3 compounds from patent publication US8288549B2, “Glycine B antagonist” (Merz Pharma GmbH & Co. KGaA, priority 2008, dated 2012) can be followed below.

For orientation: pIC50 means the IC50 on a negative log10 scale, so that one unit is a factor of ten. As usually defined, the melting point is the temperature, or range, at which the solid turns liquid.

pIC50: −log10 of the molar value.

The target in data set [1] is T1, NMDA receptor glycine B site (Rattus norvegicus, UniProt P35439).
T1 construct: Hippocampi are then isolated from the brains of at least 8 embryos after decapitation; endogenous in cells; host or cells: primary cultured hippocampal neurons from E20 Sprague-Dawley rat embryos, 11-15 DIV
The experiment in a line: Whole cell patch-clamp recordings in cultured rat hippocampal neurons (NMDA/D-Serine evoked currents). The data set is classed as cell-based. The following applies: NMDA (200 μM) and D-Serine (1 μM), holding potential −70 mV, read-out: NMDA-PC-r-HIC-NAM - IC50. As for the experimental part: Antagonistic potencies of the test compounds are functionally evaluated using electrophysiological whole cell patch-clamp recordings and/or fluorometric intracellular Ca^2+-imaging (FLIPR) screens.
Cell preparation is performed as described by Parsons, et al. (Neuropharmacology, 1998, 37(6), 719-727). The female Sprague-Dawley rat is anaesthetised by placing in a saturated CO2-euthanasia chamber under further quiet CO2-influx. Under these conditions the rat loses consciousness after a few seconds and is then sacrificed by cervical dislocation. After opening the abdominal cavity, embryos (E20) are removed and stored in ice cold Ca^2+- and Mg^2+-free Hank's Buffered Salt Solution (pH 7.3), containing 4 g/l glucose (HBSS-CMF). Hippocampi are then isolated from the brains of at least 8 embryos after decapitation, transferred into ice cold HBSS-CMF and washed 3 to 4 times.
Hippocampi are pre-incubated for 8 min with a 0.66% trypsin (Sigma-Aldrich) and 0.1% (20 U/ml) DNAase solution (Sigma-Aldrich) in Ca^2+-free Phosphate Buffered Saline (PBS-CF) and washed 3 times with HBSS-CMF. Cells are then mechanically dissociated by trituration in a PBS-CF solution containing 0.05% (10 U/ml) DNAase and 0.3% of the trypsin inhibitor ovomucoid (all from Sigma-Aldrich). The cells are then centrifuged at 180×g for 10 minutes, and the cell pellet re-suspended in basal Minimum essential medium (MEM, Invitrogen, Karlsruhe, Germany), again carefully triturated to ensure maximal dissociation and finally plated in the flexiPERM inserts (Thermo Fisher Scientific, Langenselbold, Germany) at a density of 15×10^3 cells/cm^2 (0.5 ml/insert) onto poly-DL-ornithine (Sigma) and mouse laminin (Invitrogen) pre-coated plastic petri dishes. After 1 hour the cells become attached to the bottom of the dish and the inserts may be removed. The cells are then nourished with 2 ml MEM supplemented with 5% foetal calf serum (FCS) and 5% horse serum and incubated at 37° C. with 95% air and 5% CO2 at 95% humidity. After 4 days in vitro (DIV) further glial mitosis is inhibited by adding 10 μl of AraC (5 μM endconcentration). The medium is completely exchanged after an additional 2 DIV and again, but only partly (50%), after 8 DIV. The cells are used for electrophysiological recordings after 11-15 DIV.
Cells are visualised using an inverted microscope and selected for patching based upon their position and morphology. Voltage clamp recordings are made in the whole cell configuration of the patch clamp technique at a holding potential of −70 mV with the aid of an EPC-10 amplifier in combination with pipette manipulator. Patch clamp pipettes are pulled from borosilicate glass using a horizontal puller (P-97 Puller, Sutter Instruments, USA) and, when filled with intracellular solution, have resistances of 1-4 MΩ.
Solutions are delivered via a home-made gravity driven very fast perfusion system (<10 ms) including valves to switch flow on and off in combination with a stepper motor-driven double-barreled theta glass application pipette in order to expose cells to either agonist-free or agonist-containing solutions in presence or absence of antagonist.
The intracellular solution used consists of: 120 mM CsCl, 10 mM EGTA, 1 mM MgCl2, 200 μM CaCl2, 10 mM glucose and 22 mM tetraethyl ammonium chloride (TEA-CL). The corresponding extracellular bath solution contains: 140 mM NaCl, 3 mM KCl, 10 mM glucose, 10 mM HEPES, 1.5 mM CaCl2 and 4.5 mM sucrose (all from Sigma-Aldrich) pH 7.3, and is supplemented with 0.3 μM tetrodotoxin (TTX, Tocris, Bristol, U.K.) to block voltage-activated sodium channels and 0.25 μM bicuculline (Sigma-Aldrich) to block GABAA receptors. […]

The target of data set [2] is T2, glycine binding pocket of the NMDA receptor (Rattus norvegicus, UniProt P35439).
T2 construct: The cortex is dissected out and processed as described by Parsons, et al; from tissue; host or cells: rat cerebral cortex membranes (male Sprague-Dawley)
The data set is described as follows: [3H]-MDL-105,519 displacement studies on rat cortical membranes. The following applies: displacement of 2 nM [3H]-MDL-105,519, rat cortical membranes, 4° C., 1 h; read-out: NMDA-MDL 105519-r-CTX - IC50. As for the experimental part: [^3]MDL-105,519 Displacement Studies
For the evaluation of the binding affinity of the test compounds on the glycine binding pocket of the NMDA receptor, [^3H]-MDL-105,519 (GE Healthcare, Freiburg, Germany) displacement studies are performed using a 96-well plate robotic platform. MDL-105,519 (Baron et al., J Pharmacol Exp Ther 1996, 279(1), 62-68; Baron et al., European Journal of Pharmacology, 1997, 323(2-3), 181-192; Hoffner & Wanner, Neuroscience Letters, 1997, 226(2), 79-82) is a selective, high affinity antagonist at the NMDA receptor glycine site.
Tissue preparation is performed according to Foster & Wong (Br J Pharmacol, 1987, 91, 403-409) with some modifications. Anaesthetised male Sprague-Dawley rats (200-250 g, Janvier, Le Genest-Isle, France) are decapitated and their brains removed rapidly. The cortex is dissected out and processed as described by Parsons, et al. (J Pharmacol Exp Ther, 1997, 283(3), 1264-1275). For isolation of the cell membranes, the cortices are homogenized in 20 volumes of ice-cold 0.32 M sucrose (Sigma-Aldrich, Taufkirchen, Germany) using a glass-Teflon homogenizer. The homogenate is centrifuged at 1000×g for 10 minutes, the pellet is discarded and the supernatant centrifuged at 20,000×g for 20 minutes. The resulting pellet is re-suspended in 20 volumes of distilled water and centrifuged for 20 minutes at 8000×g. The supernatant and the buffy coat are then centrifuged three times (48,000×g for 20 minutes) in the presence of 50 mM Tris-HCl, pH 8.0 (assay buffer). All centrifugation steps are carried out at 4° C. After resuspension in 5 volumes of 50 mM Tris-HCl, pH 7.5, the membrane suspension is frozen rapidly at −80° C. On the day of assay, the membranes are thawed and washed four times by resuspension in 50 mM Tris-HCl, pH 7.5, and centrifugation at 48,000×g for 20 minutes. The final pellet is suspended in assay buffer. The amount of protein in the final membrane preparation is determined according to the method of Lowry, et al. (J. Biological Chemistry, 1951, 193, 256-275) with some modifications (Hartree, Analytical Biochemistry, 1972, 48, 422-427). The final protein concentration used for our studies is 400 μg/ml.
A robotic system designed for binding assays (Tecan Deutschland GmbH, Crailsheim, Germany) is loaded with the membrane solution, solutions for bound control (buffer/DMSO 20%), unlabeled glycine (1 mM) for evaluation of non-specific binding, all compounds to be tested (at 20-fold concentrations), radioligand and respective 96-well plates.
Before performing displacement studies, saturation experiments are performed to determine the equilibrium dissociation constant (Kd) of [^3H]-MDL-105,519, which is a parameter for the affinity of the radioligand to the binding site. The protein/receptor concentration is held constant whereas the amount of specific bound radioligand is determined using increasing concentrations of ligand.
On the basis of the saturation experiments, a final [^3H]-MDL-105,519 concentration of 2 nM is selected. Firstly, the assay plates are loaded with membrane solution and are shaken at 4° C. The mother plates are then prepared by pipetting the compounds (n=4) into assay buffer/20% DMSO to obtain the desired final concentrations. After transferring radioligand into the assay plates, the compounds are added (including the bound and the non-specific binding control). The final DMSO concentration is 1%. The assay plates are incubated and shaken at 4° C. for 1 h, before the mixture is exhausted as rapidly as possible via a vacuum manifold using the Multiscreen HTS glass fibre (type B) filter plates (Millipore, Schwalbach, Germany) under a constant vacuum of 450 mbar. The membranes are washed four times with cold assay buffer (100 μL). […]

Take `O=C(O)c1cc2cc(Cl)ccc2nc1NC(Cc1c[nH]c2ccc(F)cc12)C(=O)O` (stereo not shown) [Example 25, 2-[1-Carboxy-2-(5-fluoro-1H-indol-3-yl)-ethylamino]-6-chloro-quinoline-3-carboxylic acid]: the pIC50 in data set [1] is 6.03; in data set [2], 5.67.

For `O=C(O)c1cc2cc(Cl)ccc2nc1N[C@@H](Cc1ccc(O)c([N+](=O)[O-])c1)C(=O)O` [Example 41, 2-[(S)-1-Carboxy-2-(4-hydroxy-3-nitro-phenyl)-ethylamino]-6-chloro-quinoline-3-carboxylic acid], the pIC50 in data set [1] is 5.99; in data set [2] it was 5.73.

In turn, `O=C(O)c1cc2cc(Br)cc(Br)c2nc1NC(Cc1ccccc1)C(=O)O` (stereo not shown) [Example 56, 6,8-Dibromo-2-(1-carboxy-2-phenyl-ethylamino)-quinoline-3-carboxylic acid] returned a melting point of 115 to 117 °C. The pIC50 in data set [1] was 5.91. In addition, the pIC50 in data set [2] was 5.76.
